Assay results as given in ChEMBL document CHEMBL5727303, “Substituted perhydropyrrolo[3,4-c]pyrrole derivatives and the use of same” (2019).

Experiments:
[1] = target: Potassium channel subfamily K member 9 (Homo sapiens, UniProt Q9NPC2); experiment: (§1) In Vitro Electrophysiological Assay: In Vitro Electrophysiological Analysis of the Human TASK-1 and TASK-3 Channels Via Two-Electrode Voltage Clamp Technique in Xenopus laevis OocytesSubsequently, the oocytes were injected with 0.5-5 ng of a cRNA solution coding for TASK-1 or TASK-3. For the electrophysiological analysis of the channel proteins expressed in the oocytes, the two-electrode voltage clamp technique was used. The measurements were conducted at room temperature (21-22° C.) using a Turbo TEC 10CD amplifier (NPI), recorded at 2 kHz and filtered with 0.4 kHz. Substance administration was performed using a gravitation-driven perfusion system. Here, the oocyte is located in a measuring chamber and exposed to the solution stream of 10 ml/min. The level in the measuring chamber is monitored and regulated by sucking off the solution using a peristaltic pump.; assay type: cell-based
Potassium channel subfamily K member 9, sequence (Q9NPC2 whole entry, the tested form may be a part): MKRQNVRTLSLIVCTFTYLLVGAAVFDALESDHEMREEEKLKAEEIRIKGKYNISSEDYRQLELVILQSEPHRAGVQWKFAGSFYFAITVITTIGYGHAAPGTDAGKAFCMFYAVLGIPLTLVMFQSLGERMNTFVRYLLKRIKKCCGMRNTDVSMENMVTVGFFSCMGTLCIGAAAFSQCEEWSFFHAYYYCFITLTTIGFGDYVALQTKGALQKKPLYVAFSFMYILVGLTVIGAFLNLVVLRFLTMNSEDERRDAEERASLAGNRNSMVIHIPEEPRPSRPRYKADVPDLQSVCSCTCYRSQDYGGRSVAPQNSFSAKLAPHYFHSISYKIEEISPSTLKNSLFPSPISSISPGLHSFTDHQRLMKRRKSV

[2] = target: Potassium channel subfamily K member 3 (Homo sapiens, UniProt O14649); experiment: as §1; assay type: cell-based
Potassium channel subfamily K member 3, sequence (O14649 whole entry): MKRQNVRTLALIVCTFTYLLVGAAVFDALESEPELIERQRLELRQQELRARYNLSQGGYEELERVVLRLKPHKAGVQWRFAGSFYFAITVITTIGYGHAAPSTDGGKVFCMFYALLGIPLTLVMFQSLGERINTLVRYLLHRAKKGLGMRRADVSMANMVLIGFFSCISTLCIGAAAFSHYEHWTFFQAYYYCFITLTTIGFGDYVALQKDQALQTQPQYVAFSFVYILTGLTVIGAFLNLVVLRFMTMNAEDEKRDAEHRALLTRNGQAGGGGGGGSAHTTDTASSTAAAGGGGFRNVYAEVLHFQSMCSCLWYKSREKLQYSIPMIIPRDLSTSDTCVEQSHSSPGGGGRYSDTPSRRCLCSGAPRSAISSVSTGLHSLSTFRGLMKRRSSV

## CCOc1ccccc1NC(=O)N1CC2CN(Cc3c(-c4ccc(Br)cc4)nc4ccccn34)CC2C1 (configuration not stated)
[1]
  IC50: 3700 nM
[2]
  IC50: 740 nM
